Read-outs that look alike come from different tables or passages of the source.
Key:
MCF-7 = assay: In vitro antiproliferative activity (MTT), MCF-7; format: cell-based; conditions: Homo sapiens, MCF7, tumor cell proliferation, 72 h, mean ± SE
Procedure: (§1) Human T-cell leukemia (CCRF-CEM and Jurkat) and human B-cell leukemia (SEM) cells were grown in RPMI-1640 medium (Gibco, Milano, Italy). Breast adenocarcinoma (MCF7), human cervix carcinoma (HeLa), and human colon adenocarcinoma (HT-29) cells were grown in DMEM medium (Gibco, Milano, Italy), all supplemented with 115 units/mL penicillin G (Gibco, Milano, Italy), 115 μg/mL streptomycin (Invitrogen, Milano, Italy), and 10% fetal bovine serum (Invitrogen, Milano, Italy). Stock solutions (10 mM) of the different compounds were obtained by dissolving them in dimethyl sulfoxide (DMSO). Individual wells of a 96-well tissue culture microtiter plate were inoculated with 100 μL of complete medium containing 8 × 10^3 cells. The plates were incubated at 37 °C in a humidified 5% CO2 incubator for 18 h prior to the experiments. After medium removal, 100 μL of fresh medium containing the test compound at different concentrations was added to each well in triplicate and incubated at 37 °C for 72 h. The percentage of DMSO in the medium never exceeded 0.25%. This was also the maximum DMSO concentration in all cell-based assays described below. […] Different concentrations of the test compounds were added, and viability was determined 72 h later by the MTT test. For cytotoxicity evaluations in resting PBL cultures, non-adherent cells were resuspended (5 × 10^5 cells/mL) and treated for 72 h with the test compounds, as described above.

[1] = tested on: HCT-15 (human colon adenocarcinoma); conditions: cited from earlier work
RS4;11 = assay: In vitro antiproliferative activity (MTT), RS4;11; format: cell-based; conditions: Homo sapiens, tumor cell proliferation, 72 h, mean ± SE
tubulin = assay: Inhibition of [3H]colchicine binding to tubulin; parameters: species or system bovine; conditions: tubulin 1 μM, [3H]colchicine 5 μM
Procedure: The ability of the test compounds to inhibit colchicine binding to tubulin was measured as described[22], except that the reaction mixtures contained 1 μM tubulin, 5 μM [^3H]colchicine and 1 or 5 μM test compound.

[2] = tested on: NCI-H460 (human lung large cell carcinoma); conditions: cited from earlier work
HeLa = assay: In vitro antiproliferative activity (MTT), HeLa; format: cell-based; conditions: Homo sapiens, tumor cell proliferation, 72 h, mean ± SE
Procedure: as §1

bovine brain tubulin = assay: Inhibition of tubulin polymerization (turbidimetry); format: biochemical
Procedure: To evaluate the effect of the compounds on tubulin assembly in vitro[22], varying concentrations of compounds were preincubated with 10 μM bovine brain tubulin in glutamate buffer at 30 °C and then cooled to 0 °C. After addition of 0.4 mM GTP (final concentration), the mixtures were transferred to 0 °C cuvettes in a recording spectrophotometer equipped with an electronic temperature controller and warmed to 30 °C. Tubulin assembly was followed turbidimetrically at 350 nm. […] The ability of the test compounds to inhibit colchicine binding to tubulin was measured as described, except that the reaction mixtures contained 1 μM tubulin, 5 μM [^3H]colchicine and 1 or 5 μM test compound.

A549 = assay: In vitro antiproliferative activity (MTT), A549; format: cell-based; conditions: Homo sapiens, tumor cell proliferation, 72 h, mean ± SE
Procedure: as §1

HL-60 = assay: In vitro antiproliferative activity (MTT), HL-60; format: cell-based; conditions: Homo sapiens, tumor cell proliferation, 72 h, mean ± SE
Jurkat = assay: In vitro antiproliferative activity (MTT), Jurkat; format: cell-based; conditions: Homo sapiens, tumor cell proliferation, 72 h, mean ± SE
Procedure: as §1

[3] = tested on: panel of seven human tumor cell lines; assay: Antiproliferative activity across the panel of seven human tumor cell lines; format: cell-based
Procedure: as §1

HT-29 = assay: In vitro antiproliferative activity (MTT), HT-29; format: cell-based; conditions: Homo sapiens, tumor cell proliferation, 72 h, mean ± SE
Procedure: as §1

Compound: COc1cc(-n2ccnc2-c2ccc3ccccc3c2)cc(OC)c1OC [Compound 3c, reference compound]
- IC50 (MCF-7): 4.6 ± 2.3 nM
- IC50 [1]: 51 nM
- IC50 (RS4;11): 62.3 ± 10.3 nM
- Colchicine binding % inhibition ± S.D., 5 μM drug (tubulin): 65 ± 4%
- IC50 [2]: 57 nM
- IC50 (HeLa): 2 ± 0.14 nM
- IC50 (bovine brain tubulin; repeated beside the calculated energies, read-out: inhibition of tubulin polymerization IC50 (Table 4)): 1800 nM
- IC50 (bovine brain tubulin; tubulin at 10 μM, 20 min incubation, read-out: Tubulin assembly IC50 ± S.D.): 1800 nM
- IC50 (A549): 7.1 ± 1.5 nM
- IC50 (HL-60): 24 ± 12.1 nM
- IC50 (Jurkat): 2.5 ± 0.9 nM
- IC50 ([3]; average over the seven cell lines, read-out: average IC50 values): 15 nM
- IC50 ([3]; range over seven cancer cell lines, read-out: IC50 values in the seven cell lines (range)): 2 to 62.3 nM
- IC50 (HT-29): 3.6 ± 0.9 nM
